Key:
[1] = target: nucleoside diphosphate kinase (NDK A) (Homo sapiens, UniProt P15531); experiment: pAp-agarose affinity chromatography of HeLa extract, LC-MS/MS; assay type: cell-based
[2] = target: T1, small fragment nuclease (Sfn) (Homo sapiens, UniProt Q9Y3B8); experiment: Cy5-RNA 5mer degradation assay; assay type: biochemical
T1 sequence (Q9Y3B8 26-237): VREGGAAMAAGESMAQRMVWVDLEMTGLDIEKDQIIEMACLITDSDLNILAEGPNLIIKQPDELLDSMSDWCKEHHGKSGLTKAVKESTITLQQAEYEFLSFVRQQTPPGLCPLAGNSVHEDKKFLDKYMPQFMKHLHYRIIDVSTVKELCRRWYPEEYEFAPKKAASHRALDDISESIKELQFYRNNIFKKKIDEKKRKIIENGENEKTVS

Oligoribonuclease (Orn) = target: T2, Oligoribonuclease (Orn) (Escherichia coli, UniProt P0A784); experiment: Cy5-RNA 5mer degradation assay; assay type: biochemical
T2 sequence (P0A784 2-181): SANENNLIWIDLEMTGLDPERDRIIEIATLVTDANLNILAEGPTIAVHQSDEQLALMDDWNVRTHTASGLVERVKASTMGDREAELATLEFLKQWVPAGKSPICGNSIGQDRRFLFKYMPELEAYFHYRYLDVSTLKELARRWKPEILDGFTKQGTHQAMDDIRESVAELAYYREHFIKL

nucleoside diphosphate kinase (NDK A), sequence (P15531 2-152): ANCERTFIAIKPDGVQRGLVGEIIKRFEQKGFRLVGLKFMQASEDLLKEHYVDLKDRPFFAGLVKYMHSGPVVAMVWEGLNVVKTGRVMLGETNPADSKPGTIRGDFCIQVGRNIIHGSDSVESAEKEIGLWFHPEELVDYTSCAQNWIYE

**Q.** Which results are given for `Nc1ncnc2c1ncn2[C@@H]1O[C@H](COP(=O)(O)O)[C@@H](OP(=O)(O)O)[C@H]1O` [pAp]?
**A.** pAp-agarose affinity chromatography of HeLa extract, LC-MS/MS [1]: The second human enzyme we found to bind to pAp is NDK.; Cy5-RNA 5mer degradation assay (gel) with purified Sfn; also pAp-agarose capture [2]: ~ 20 µM; Cy5-RNA 5mer degradation assay (gel) with purified Orn; also pAp-agarose affinit (Oligoribonuclease (Orn)): ~ 20 µM

From paper PMC1458514 (Nucleic Acids Research, 2006)
